Experimental data published in ChEMBL document CHEMBL1208730, “Heteroaryl-linked 5-(1H-benzimidazol-1-yl)-2-thiophenecarboxamides: potent inhibitors of polo-like kinase 1 (PLK1) with improved drug-like properties” (Bioorg Med Chem Lett, 2010).
Values after ≈ are worked out from the molar mass of the structure shown.

Legend:
[1] = Clearance in iv dosed mouse; assay type: ADME, organism-based; details: in vivo
[2] = Solubility of the compound in 20% SBE beta-cyclodextrin at pH 6; assay type: physicochemical

Row | clearance [1] [mL/min/kg] | solubility [2] [µg/mL] | SMILES
1 | 38 | 1000 (≈ 1910 µM) | C[C@@H](Oc1cc(-n2cnc3cc(-c4ccnc(N)c4)ccc32)sc1C(N)=O)c1ccccc1C(F)(F)F
2 | 70 | 200 (≈ 381 µM) | C[C@@H](Oc1cc(-n2cnc3cc(-c4ccnc(N)n4)ccc32)sc1C(N)=O)c1ccccc1C(F)(F)F
3 | 58 |  | C[C@@H](Oc1cc(-n2cnc3cc(-c4ccnc(N5CCNCC5)c4)ccc32)sc1C(N)=O)c1ccccc1Cl
4 | 52 | 500 (≈ 872 µM) | C[C@@H](Oc1cc(-n2cnc3cc(-c4ccnc(N5CCN(C)CC5)c4)ccc32)sc1C(N)=O)c1ccccc1Cl
5 | 32 | 870 (≈ 1430 µM) | C[C@@H](Oc1cc(-n2cnc3cc(-c4ccnc(N5CCN(C)CC5)c4)ccc32)sc1C(N)=O)c1ccccc1C(F)(F)F
6 | 62 | 3230 (≈ 5430 µM) | C[C@@H](Oc1cc(-n2cnc3cc(-c4ccnc(NCCN(C)C)c4)ccc32)sc1C(N)=O)c1ccccc1C(F)(F)F
7 |  | 30 (≈ 50.3 µM) | C[C@@H](Oc1cc(-n2cnc3cc(-c4ccnc(NCCS(C)(=O)=O)c4)ccc32)sc1C(N)=O)c1ccccc1Cl
8 | 109 | 300 (≈ 562 µM) | C[C@@H](Oc1cc(-n2cnc3cc(-c4ccnc(NCCO)c4)ccc32)sc1C(N)=O)c1ccccc1Cl
9 | 48 | 1050 (≈ 1790 µM) | C[C@@H](Oc1cc(-n2cnc3cc(-c4ccnc(NC5CCN(C)CC5)c4)ccc32)sc1C(N)=O)c1ccccc1Cl
10 | 19 | 2930 (≈ 4990 µM) | C[C@@H](Oc1cc(-n2cnc3cc(-c4ccc(NC5CCN(C)CC5)nc4)ccc32)sc1C(N)=O)c1ccccc1Cl
11 | 82 | 530 (≈ 918 µM) | C[C@@H](Oc1cc(-n2cnc3cc(-c4cnn(CCN5CCOCC5)c4)ccc32)sc1C(N)=O)c1ccccc1Cl
12 | 54 | 4550 (≈ 7710 µM) | C[C@@H](Oc1cc(-n2cnc3cc(-c4cnn(CCN5CCN(C)CC5)c4)ccc32)sc1C(N)=O)c1ccccc1Cl
13 | 44 | 5830 (≈ 10600 µM) | C[C@@H](Oc1cc(-n2cnc3cc(-c4cnn(CCCN(C)C)c4)ccc32)sc1C(N)=O)c1ccccc1Cl
14 | 44 | 3120 (≈ 5050 µM) | CCN1CCN(CCCn2cc(-c3ccc4c(c3)ncn4-c3cc(O[C@H](C)c4ccccc4Cl)c(C(N)=O)s3)cn2)CC1
15 | 70 | 3 (≈ 6.32 µM) | C[C@@H](Oc1cc(-n2cnc3cc(-c4ccncc4)ccc32)sc1C(N)=O)c1ccccc1Cl
16 | 15 | 100 (≈ 209 µM) | C[C@@H](Oc1cc(-n2cnc3cc(-c4cnn(C)c4)ccc32)sc1C(N)=O)c1ccccc1Cl
